How the values were obtained:
NOD and NZO mice = assay: Implantation rate and embryonic/fetal resorption after tacrolimus; format: in vivo, mouse; details: short-term administration
Description: Fifty four NOD mice at the prediabetic and early diabetic stages were carefully selected to match the criteria of being 2 standard deviation heavier in body weight than their age-matched normoglycemic control mice and having blood glucose value of >14.9 mM/1 during the glucose tolerance test. The selected mice were 9 weeks old and were treated with 0.1 mg/kg q2d of tacrolimus (Prograf (5 mg/ml), Astellas) subcutaneously administered in 0.2 ml saline for three weeks after which animals were mated to males of the same strain (See FIG. 1). Vehicle (0.2 ml saline, s.q.) treated hyperglycemic NOD female mice were allowed two weeks in diabetes before they were mated to males of the same strain. […]
Twenty NZO and DIO/B6 female mice were maintained on a high fat diet consisted of 60% kcal fat, 20% kcal protein and 20% kcal carbohydrate, with a total energy mass of 5.24 kcal/gm (D12492, Research Diets Inc.; Cedarlane Laboratories, Burlington, Ontario, Canada) starting at 7 weeks of age and maintained on the diet for a total of 12 weeks of study period during which their weekly body weight changes and non-fasting blood glucose values were recorded. […]

[1] = test system: 60% high fat fed NZO or DIO mice; assay: Body weight gain and visceral fat in high fat fed mice; format: in vivo, mouse
Description: Twenty NZO and DIO/B6 female mice were maintained on a high fat diet consisted of 60% kcal fat, 20% kcal protein and 20% kcal carbohydrate, with a total energy mass of 5.24 kcal/gm (D12492, Research Diets Inc.; […] Tacrolimus (Prograf (5 mg/ml), Astellas) was administered subcutaneously in a dose of 0.1 mg/kg q2d in 0.2 ml saline for three weeks to the obese and glucose intolerant NZO and DIO mice starting at the age of 10 weeks after which animals were mated to males of the same strain and pregnancy was dated from the morning of the positive detection of vaginal (copulation) plug. See FIG. 2. Facial (mandibular) venous blood samples were collected from treated animals at 24 and 48 hours between injections and at pregnancy days 0.5, 2.5, 4.5, 6.5, 8.5, 10.5, 12.5, 14.5, 16.5 and 18.5, respectively, following a standard procedure for facial bleed in mice (Golde et al. Lab Anim (NY) 2005 34:39-43). A lean cohort of control B6 and BALBc mice was fed with a regular 10 kcal % control chow diet containing the same protein content as the high fat diet with a total energy mass of 3.1 kcal/g (D12450Bi, Cedarlane, Ontario).

[2] = Likely blood concentration from the dose regimen described herein (extrapolated); format: in vivo, mouse; details: four-fold lower than the rat value
Description: The smallest currently available tacrolimus dose is a 0.5 mg capsule and a single oral dose of 0.5 mg tacrolimus results in a maximal blood concentration in humans of 4.6 ng/ml (Mathew et al. Clinical Therapeutics. 2011 33(9):1105-1119). This represents over a seven-fold difference based upon the efficacious blood concentration of tacrolimus in experiments disclosed herein. A dose of 0.1 mg/kg in rats represents does of 0.2 mg/kg in mice, based upon a rat Km=6. This is a four-fold higher dose (0.2 mg/kg) than used in experiments disclosed herein. Therefore, the likely blood concentration from the dose regimen described herein would be four-fold lower (i.e. 0.15 ng/ml blood concentration) and represents an even greater exposure difference (28-fold to 38-fold) compared to existing tacrolimus dose forms for humans. Thus, experiments disclosed herein indicate that a substantially lower dose of macrolide agent such as tacrolimus than routinely administered to date may be useful in the methods of the present invention. By “substantially lower dose” or “low dose therapy” for purposes of the present invention, it is meant a dose of macrolide agent at least 2-fold lower, more preferably at least 4-fold lower, more preferably at least 10-fold lower, than the recommended starting doses of tacrolimus (Prograf) when administered for kidney and liver transplant or heart transplant.

transplant patients = details: cited from earlier work

SMILES: C=CC[C@@H]1/C=C(\C)C[C@H](C)C[C@H](OC)[C@H]2O[C@@](O)(C(=O)C(=O)N3CCCC[C@H]3C(=O)O[C@H](/C(C)=C/[C@@H]3CC[C@@H](O)[C@H](OC)C3)[C@H](C)[C@@H](O)CC1=O)[C@H](C)C[C@@H]2OC [tacrolimus]
- rates of embryonic and fetal resorption (NOD and NZO mice): reduced rates of embryonic and fetal resorption
- implantation rate (NOD and NZO mice; pregnancy days 4.5 and 6.5): enhanced implantation rate
- body weight gain ([1]; after the initial administration, FIG. 19B): prevented body weight gain for seven consecutive weeks
- mass of the visceral fat ([1]; all treated mice): significantly lower
- likely blood concentration [2]: 0.15 ng/mL
- safety of use during pregnancy (transplant patients): safe drug for use during pregnancy

— patent US9427433B2, “Methods and compositions for enhancing fertility and/or inhibiting pregnancy failure and restoring glucose tolerance” (Queen's University at Kingston, priority 2011, dated 2016)
